According to patent US10870638B2, “Pyridazinone compound or its salt, and herbicide containing it” (ISHIHARA SANGYO KAISHA, LTD., priority 2016, dated 2020):

How the values were obtained:
Format in all cases: in vivo
Conditions in all cases: active ingredient amount 31 g/ha, 14th day after application
[1] = tested on: barnyardgrass (Echinochloa crus-qalli L.); assay: Test Example 2: soil application on the day after sowing, growth inhibition rate on 14th day
Description: (§1) Upland field soil was put into a 1/300,000 hectare pot, and seeds of various plants (barnyardgrass (Echinochloa crus-qalli L.), crabgrass (Digitaris sanquinalis L.), green foxtail (Setaria viridis L.), redroot pigweed (Amaranthus retroflexus L.), prickly sida (Sida spinosa L.), velvetleaf (Abutilon theophrasti MEDIC.), rice (Oryza sativa L.), corn (Zea mays L.), wheat (Triticum aestivum L.), soybean (Glycine max Merr.)) were sown. On the day after sowing, wettable powders or emulsifiable concentrates of the compounds of the present invention prepared in accordance with a conventional preparation method, were weighed so as to achieve the prescribed active ingredient amounts, and diluted with water in an amount corresponding to 1,000 liters per 1 hectare, followed by soil application by a small sprayer.
(§2) On the 14th day after the application, the state of growth of the respective plants was visually observed, and the herbicidal effect was evaluated by a growth inhibition rate (%) of 0 (equivalent to the non-treated area) to 100 (complete kill).

rice (Oryza sativa L.) [2] = assay: as above
Description: as §1, §2

[3] = tested on: crabgrass (Digitaris sanquinalis L.); assay: as above
Description: as §1, §2

corn (Zea mays L.) [4] = assay: as above
Description: as §1, §2

[5] = tested on: green foxtail (Setaria viridis L.); assay: as above
Description: as §1, §2

[6] = tested on: velvetleaf (Abutilon theophrasti MEDIC.); assay: as above
Description: as §1, §2

[7] = tested on: soybean (Glycine max Merr.); assay: as above
Description: as §1, §2

[8] = tested on: wheat (Triticum aestivum L.); assay: as above
Description: as §1, §2

[9] = tested on: barnyardgrass (Echinochloa crus-qalli L.); assay: Test Example 1: foliar treatment, growth inhibition rate on 14th day
Method in brief: (§3)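 Visual 0–100% inhibition scoring (100 = complete kill) at 14 days after foliar treatment of soil-grown seedlings at species-specific leaf stages, with the compound sprayed as a wettable powder or emulsifiable concentrate dilution.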

[10] = tested on: crabgrass (Digitaria sanquinalis L.); assay: as above
Method in brief: as §3

rice (Oryza sativa L.) [11] = assay: as above
Method in brief: (§4)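 Plants in upland soil were sprayed on the foliage at early leaf stages (wild oat 0.4–1.2, rice 0.2–2.7, green foxtail 0.5–3.2, soybean primary leaf) with wettable powder or emulsifiable concentrate formulations. Spray volume was 1,000 L/ha water containing 0.1 vol% spreader, at prescribed active-ingredient rates. Growth inhibition (0 = untreated, 100 = complete kill) was scored visually on day 14.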

corn (Zea mays L.) [12] = assay: as above
Method in brief: as §3

[13] = tested on: green foxtail (Setaria viridis L.); assay: as above
Method in brief: as §4

[14] = tested on: italian ryegrass (Lolium multiflorum Lam.); assay: as above
Method in brief: as §3

[15] = tested on: wild oat (Avena fatua L.); assay: as above
Method in brief: as §4

[16] = tested on: soybean (Glycine max Merr.); assay: as above
Method in brief: as §4

[17] = tested on: wheat (Triticum aestivum L.); assay: as above
Method in brief: as §3

[18] = tested on: redroot pigweed (Amaranthus retroflexus L.); assay: as above
Method in brief: as §3

[19] = tested on: prickly sida (Sida spinosa L.); assay: Test Example 2: soil application on the day after sowing, growth inhibition rate on 14th day
Description: as §1, §2

[20] = tested on: redroot pigweed (Amaranthus retroflexus L.); assay: as above
Description: as §1, §2

Row | SMILES | Growth inhibition rate (%) Barnyardgrass [1] [%] | Growth inhibition rate (%) Rice (rice (Oryza sativa L.) [2]) [%] | Growth inhibition rate (%) Crabgrass [3] [%] | Growth inhibition rate (%) Corn (corn (Zea mays L.) [4]) [%] | Growth inhibition rate (%) Green foxtail [5] [%] | Growth inhibition rate (%) Velvetleaf [6] [%] | Growth inhibition rate (%) Soybean [7] [%] | Growth inhibition rate (%) Wheat [8] [%] | Growth inhibition rate (%) Barnyardgrass [9] [%] | Growth inhibition rate (%) Crabgrass [10] [%] | Growth inhibition rate (%) Rice (rice (Oryza sativa L.) [11]) [%] | Growth inhibition rate (%) Corn (corn (Zea mays L.) [12]) [%] | Growth inhibition rate (%) Green foxtail [13] [%] | Growth inhibition rate (%) Italian ryegrass [14] [%] | Growth inhibition rate (%) Wild oat [15] [%] | Growth inhibition rate (%) Soybean [16] [%] | Growth inhibition rate (%) Wheat [17] [%] | Growth inhibition rate (%) Redroot pigweed [18] [%] | Growth inhibition rate (%) Prickly sida [19] [%] | further results
1 | CCc1ccc(Oc2nc3cc(Cl)ccc3o2)cc1-c1c(O)c(C)nn(C)c1=O [Compound 2-162] | 90 | 0 | 20 | 0 | 20 | 0 | 0 | 20 | 100 | 100 | 100 | 90 | 99 | 100 | 100 | 0 | 99 | 10 | – | –
2 | CC(=O)Oc1cnn(C)c(=O)c1-c1cc(Oc2nc3cc(Cl)ccc3o2)ccc1C [Compound 2-174] | 20 | 0 | 80 | 20 | 0 | 0 | 0 | 0 | 100 | 93 | 93 | 95 | 93 | 95 | 88 | 0 | 93 | – | 0 | Growth inhibition rate (%) Redroot pigweed [20]: 0%
3 | Cc1ccc(Sc2ncc(C(F)(F)F)cc2Cl)cc1-c1c(O)c(C)nn(C)c1=O [1-2, 4-(5-((3-chloro-5-(trifluoromethyl)pyridin-2-yl)thio)-2-methylphenyl)-5-hydroxy-2,6-dimethylpyridazin-3(2H)-one] | – | – | – | – | – | – | – | – | 100 | 99 | 10 | 95 | 99 | 99 | 95 | 0 | 20 | 0 | – | inhibition at 31 g/ha ([1]; Echinochloa): 98%; inhibition at 31 g/ha (rice (Oryza sativa L.) [2]; Oryza sativa): 20%; inhibition at 31 g/ha ([3]; Digitaria sanguinalis): 98%; inhibition at 31 g/ha (corn (Zea mays L.) [4]; Zea mays): 20%; inhibition at 31 g/ha ([5]; Setaria viridis): 99%; inhibition at 31 g/ha ([6]; Abutilon theophrasti): 0%; inhibition at 31 g/ha ([7]; Glycine max): 0%; inhibition at 31 g/ha ([8]; Triticum aestivum): 10%; inhibition at 31 g/ha ([19]; Sida spinosa): 30%
4 | CCn1ncc(O)c(-c2cc(Oc3nc4ccc(Cl)cc4o3)ccc2C)c1=O [Compound 2-167] | 40 | 0 | 99 | 0 | 100 | 0 | 0 | 0 | 100 | 99 | 60 | 90 | 100 | 80 | 45 | 30 | 25 | 0 | 0 | –
5 | Cc1ccc(Oc2nc3cc(Br)ccc3o2)cc1-c1c(O)cnn(C)c1=O [Compound 2-183] | – | – | – | – | – | – | – | – | 95 | 98 | 90 | 50 | 98 | 98 | 95 | 30 | 90 | 0 | – | –
6 | CCOC(=O)Oc1c(C)nn(C)c(=O)c1-c1cc(Oc2cnc3cc(Cl)ccc3n2)ccc1C [Compound 3-35] | – | – | – | – | – | – | – | – | 100 | 99 | 95 | 60 | 99 | 99 | 100 | 25 | 100 | 10 | – | –
7 | Cc1ccc(Oc2ccc3nc(Cl)cn3n2)cc1-c1c(O)c(C)nn(C)c1=O [Compound 2-193] | – | – | – | – | – | – | – | – | 70 | 90 | 0 | 65 | 93 | 0 | 0 | 0 | 0 | 0 | – | –
8 | CC(=O)Oc1c(C)nn(C)c(=O)c1-c1cc(Nc2ncc(C(F)(F)F)cc2Cl)ccc1C [1-146] | – | – | – | – | – | – | – | – | 98 | 90 | 0 | 75 | 93 | 70 | 88 | 10 | 85 | 0 | – | –
9 | Cc1ccc(Oc2cnc3cc(Cl)ccc3n2)cc1-c1c(O)c(C)nn(C)c1=O [Compound 3-1] | 99 | 40 | – | 20 | – | 0 | – | 25 | 100 | 99 | 100 | 10 | 100 | 100 | 98 | 0 | 98 | 50 | 0 | Growth inhibition rate (%) Redroot pigweed [20]: 0%
10 | CCc1nn(C)c(=O)c(-c2cc(Oc3ncc(C(F)(F)F)cc3Cl)ccc2C)c1OCOC [1-138] | – | – | – | – | – | – | – | – | 100 | 85 | 0 | 83 | 60 | 70 | 90 | 30 | 83 | 0 | – | –
